{"source": "patent US12600732B2", "about": "“Bifunctional compounds for degrading BTK via ubiquitin proteosome pathway” (NURIX THERAPEUTICS, INC., priority 2019, dated 2026)", "key": {"[1]": {"assay": "PK data for BTK CTMs (in vivo plasma concentrations)", "settings": "for Vd: read-out: Volume of Distribution", "description": "The present example evaluates in vivo plasma concentrations of BTK CTMs to develop PK-PD-efficacy relationship and predict human exposure."}, "Aiolos [2]": {"system": "Aiolos", "assay": "Non-human primate (cyno) DRF PD, Aiolos remaining in T cells", "type": "in vivo", "settings": "for % Aiolos Remaining in T cells: blood, 24 h after previous dose", "protocol": "This example evaluates potency and tolerability of BTK CTMs following multiple, consecutive days of dosing and examines potency of compounds for BTK and Aiolos degradation. The data in the table below is from a study in which animals were dosed daily with the designated oral dose. Analysis for BTK and Aiolos levels was performed twenty-four hours following the previous dose."}, "ITK": {"target": "T1, ITK (Homo sapiens, UniProt Q08881)", "T1 construct": "endogenous in cells; host or cells: MOLT4, TMD8", "T1 sequence (Q08881 1-620)": "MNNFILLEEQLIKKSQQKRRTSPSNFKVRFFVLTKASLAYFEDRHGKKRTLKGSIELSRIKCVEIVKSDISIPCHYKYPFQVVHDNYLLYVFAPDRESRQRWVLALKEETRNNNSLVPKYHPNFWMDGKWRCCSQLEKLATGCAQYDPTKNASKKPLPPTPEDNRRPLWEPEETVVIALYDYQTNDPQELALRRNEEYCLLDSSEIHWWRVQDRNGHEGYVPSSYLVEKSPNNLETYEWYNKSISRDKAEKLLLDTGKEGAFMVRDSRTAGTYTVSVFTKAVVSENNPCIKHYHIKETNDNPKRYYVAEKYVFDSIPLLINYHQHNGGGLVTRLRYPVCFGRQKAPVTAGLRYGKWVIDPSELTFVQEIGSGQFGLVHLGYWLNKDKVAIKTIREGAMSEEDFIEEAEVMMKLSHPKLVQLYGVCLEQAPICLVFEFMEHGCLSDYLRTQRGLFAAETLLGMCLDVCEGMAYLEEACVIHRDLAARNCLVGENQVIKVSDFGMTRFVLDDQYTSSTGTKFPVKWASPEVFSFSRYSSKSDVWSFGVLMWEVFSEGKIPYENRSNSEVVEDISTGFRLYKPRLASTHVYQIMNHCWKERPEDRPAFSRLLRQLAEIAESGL", "assay": "ITK levels in MOLT4 and TMD8 cells (FIGS. 10-12)", "type": "cell-based", "settings": "MOLT4 and TMD8 cells, FIGS. 11A and 11B", "description": "FIGS. 10A and 10B provide effects of compounds 73, 72, 121, and 44, and control compounds, on neo-substrate and ITK or BTK levels after twenty-four hours in MOLT4 cells (FIG. 10A) and TMD8 cells (FIG. 10B).\nFIGS. 11A and 11B provide effects of compounds 44, 72, and 149, and control compounds, on CRBN neo-substrate and ITK levels in MOLT4 cells (FIG. 11A) and TMD8 cells (FIG. 11B).\nFIG. 12 provides effects of compounds 130, 149, and 44 on ITK levels and IMiD activity."}, "Aiolos [3]": {"target": "T2, Aiolos (Homo sapiens, UniProt Q96SW2+Q9UKT9)", "T2 construct": "endogenous in cells; host or cells: Mino, Rec-1", "T2 sequence (Q9UKT9 whole entry)": "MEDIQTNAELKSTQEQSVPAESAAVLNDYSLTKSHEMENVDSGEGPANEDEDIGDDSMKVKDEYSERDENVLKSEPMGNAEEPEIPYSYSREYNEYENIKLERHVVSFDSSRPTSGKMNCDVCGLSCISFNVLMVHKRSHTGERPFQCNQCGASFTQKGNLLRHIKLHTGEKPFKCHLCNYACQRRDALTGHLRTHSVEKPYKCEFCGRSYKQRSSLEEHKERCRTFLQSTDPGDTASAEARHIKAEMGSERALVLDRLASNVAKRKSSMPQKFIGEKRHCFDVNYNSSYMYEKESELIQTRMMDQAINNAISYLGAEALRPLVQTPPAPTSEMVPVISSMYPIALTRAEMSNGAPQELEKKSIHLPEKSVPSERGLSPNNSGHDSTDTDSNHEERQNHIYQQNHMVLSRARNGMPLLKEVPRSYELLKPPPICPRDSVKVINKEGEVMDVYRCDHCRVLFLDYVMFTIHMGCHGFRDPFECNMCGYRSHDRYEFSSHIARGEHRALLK", "T2 sequence (Q96SW2 whole entry)": "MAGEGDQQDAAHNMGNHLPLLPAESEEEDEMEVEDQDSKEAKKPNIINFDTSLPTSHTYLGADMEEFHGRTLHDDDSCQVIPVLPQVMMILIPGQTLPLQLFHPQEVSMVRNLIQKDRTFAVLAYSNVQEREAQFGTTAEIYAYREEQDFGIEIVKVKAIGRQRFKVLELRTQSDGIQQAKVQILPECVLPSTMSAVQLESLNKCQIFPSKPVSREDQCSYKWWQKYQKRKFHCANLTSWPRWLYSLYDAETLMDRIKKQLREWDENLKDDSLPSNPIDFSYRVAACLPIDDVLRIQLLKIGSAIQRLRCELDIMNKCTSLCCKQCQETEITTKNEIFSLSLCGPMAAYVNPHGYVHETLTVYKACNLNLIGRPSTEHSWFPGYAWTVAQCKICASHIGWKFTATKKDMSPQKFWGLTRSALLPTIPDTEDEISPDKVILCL", "T2 sequence (Q16531 whole entry partner)": "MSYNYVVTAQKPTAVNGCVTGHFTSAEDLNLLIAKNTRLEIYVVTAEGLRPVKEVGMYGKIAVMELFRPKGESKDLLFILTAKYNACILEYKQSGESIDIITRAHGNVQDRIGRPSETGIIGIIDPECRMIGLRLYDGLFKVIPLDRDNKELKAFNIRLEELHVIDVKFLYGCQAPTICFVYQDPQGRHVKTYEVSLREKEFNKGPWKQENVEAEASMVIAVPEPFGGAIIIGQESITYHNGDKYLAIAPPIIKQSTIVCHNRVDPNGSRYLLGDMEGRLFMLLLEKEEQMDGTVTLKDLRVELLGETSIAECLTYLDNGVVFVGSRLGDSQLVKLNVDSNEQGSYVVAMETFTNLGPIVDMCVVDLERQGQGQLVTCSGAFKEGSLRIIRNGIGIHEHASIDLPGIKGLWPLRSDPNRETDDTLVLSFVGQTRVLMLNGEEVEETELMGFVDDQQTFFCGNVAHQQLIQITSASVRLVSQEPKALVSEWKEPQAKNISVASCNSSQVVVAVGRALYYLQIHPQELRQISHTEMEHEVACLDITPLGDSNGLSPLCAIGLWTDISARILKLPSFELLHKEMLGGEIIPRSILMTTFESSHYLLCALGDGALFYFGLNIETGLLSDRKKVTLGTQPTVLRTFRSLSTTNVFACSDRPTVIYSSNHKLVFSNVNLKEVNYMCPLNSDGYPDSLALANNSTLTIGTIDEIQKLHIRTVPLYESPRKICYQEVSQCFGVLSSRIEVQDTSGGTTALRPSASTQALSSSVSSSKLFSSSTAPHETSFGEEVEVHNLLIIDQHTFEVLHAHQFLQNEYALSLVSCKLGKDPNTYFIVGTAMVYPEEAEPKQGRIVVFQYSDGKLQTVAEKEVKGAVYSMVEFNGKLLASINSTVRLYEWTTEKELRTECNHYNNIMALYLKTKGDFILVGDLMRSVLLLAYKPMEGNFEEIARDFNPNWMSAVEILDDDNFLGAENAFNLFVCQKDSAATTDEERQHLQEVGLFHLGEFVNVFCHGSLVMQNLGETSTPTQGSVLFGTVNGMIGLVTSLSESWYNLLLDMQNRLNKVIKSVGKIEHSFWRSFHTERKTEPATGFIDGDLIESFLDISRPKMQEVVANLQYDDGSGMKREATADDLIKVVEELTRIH", "assay": "Aiolos degradation in Mantle Cell Lymphoma lines (flow cytometry)", "type": "cell-based", "settings": "for DC50: treatment time 24 h", "description": "Ikaros and Aiolos Degradation in Mantle Cell Lymphoma Lines (Ikaros and Aiolos Flow Cytometry)\nThis example evaluates the IMiD activity of CTMs in cellular models of Mantle Cell Lymphoma (MCL). […] These assays are to determine potency of CTMs for degrading IMiD neo-substrates in cellular models of MCL and to generate data to inform efficacy studies in MCL xenografts."}, "BTK [4]": {"target": "T3, BTK (Homo sapiens, UniProt Q06187)", "T3 sequence (Q06187 whole entry)": "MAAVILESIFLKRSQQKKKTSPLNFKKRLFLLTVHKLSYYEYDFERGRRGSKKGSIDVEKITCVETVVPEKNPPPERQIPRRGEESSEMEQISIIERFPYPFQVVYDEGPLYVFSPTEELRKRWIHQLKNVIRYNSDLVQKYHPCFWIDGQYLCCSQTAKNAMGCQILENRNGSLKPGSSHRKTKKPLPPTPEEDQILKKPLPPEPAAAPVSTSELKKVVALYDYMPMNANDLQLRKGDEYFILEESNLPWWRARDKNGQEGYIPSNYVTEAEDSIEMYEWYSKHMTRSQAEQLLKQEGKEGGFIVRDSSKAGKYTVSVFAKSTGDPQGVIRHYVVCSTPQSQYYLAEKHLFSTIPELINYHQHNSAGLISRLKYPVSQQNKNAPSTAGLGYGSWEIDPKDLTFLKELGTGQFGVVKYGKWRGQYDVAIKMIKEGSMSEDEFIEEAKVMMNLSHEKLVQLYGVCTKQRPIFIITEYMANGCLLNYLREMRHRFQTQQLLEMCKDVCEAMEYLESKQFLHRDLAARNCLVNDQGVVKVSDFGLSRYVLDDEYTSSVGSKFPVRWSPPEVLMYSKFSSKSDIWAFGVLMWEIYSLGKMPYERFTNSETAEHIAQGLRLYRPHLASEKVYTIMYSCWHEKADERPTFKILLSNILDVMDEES", "assay": "BTK degradation (Total BTK HTRF) in Mino cells (Mantle Cell Lymphoma model)", "type": "cell-based", "set-up": "endogenous in cells; host or cells: TMD8, Mino, Rec-1", "settings": "treatment time 4 h", "protocol": "(§1) BTK levels were determined using Cisbio Total-BTK HTRF (Homologous Time-Resolved Fluorescence) kit (63ADK064PEG) according to the manufacturer's protocol. Briefly, cells were incubated in 1× supplied lysis buffer for 30 minutes. In an opaque white low volume 96-well plate (Cisbio, 66PL96005), cell lysate was combined with two different specific BTK antibodies, one conjugated with Eu^3+-Cryptate FRET donor and one conjugated with d2 FRET acceptor. Assay controls include wells containing cell lysate with only the Eu^3+-Cryptate FRET donor antibody and wells containing both HTRF antibodies and lysis buffer without cells or control lysate provided by Cisbio. HTRF ratio was calculated as (acceptor signal at 665 nm/donor signal at 620 nm)×10^4. Background HTRF levels were determined from the control well containing the donor, but no acceptor, antibody. Background HTRF levels were subtracted from all samples. Readouts were reported as HTRF levels relative to HTRF levels of DMSO-treated cells. Four-parameter non-linear regressions were performed in GraphPad Prism 7.02 to obtain DC50 values.\nBTK Degradation (Total BTK HTRF) at Four Hours in Mino Cells\nThis example evaluates the potency of CTMs in a model of Mantle Cell Lymphoma (MCL). To evaluate potential therapeutic indications, BTK CTMs were assayed in models of Mantle Cell Lymphoma as with the TMD8 cells (ABC-DLBCL) above. Tested CTMs had similar potencies for BTK degradation in the MCL cell lines (Mino and Rec-1) and TMD8 cells."}, "BTK [5]": {"target": "T3, BTK", "assay": "Cellular BTK degradation assay (Total BTK HTRF) in TMD8 cells", "type": "cell-based", "set-up": "endogenous in cells; host or cells: TMD8", "settings": "treatment time 24 h", "protocol": "Cellular BTK Degradation Assay\nIn Vitro Cellular Screening to Determine Potency as Measured by DC50 Values after Four Hour Incubation\nas §1\nCellular BTK degradation was measured as above for four hours in TMD8 cells for two diastereomers of compound 130. DC50 and EC50 values are the concentration at which the response is halfway between the top and bottom of the fitted non-linear regression curve.\nThe present example evaluates whether potency of BTK CTMs shifts with longer timepoints. DC50 values are typically calculated with a 4-hour timepoint."}, "[6]": {"settings": "Rat Sprague-Dawley, 10 mg/kg PO"}}, "note": "Read-outs that look alike come from different tables or passages of the source.", "data": [{"smiles": "NC(=O)c1ncc(N2CCCCC2)nc1Nc1ccc(C2CCN(C[C@@H]3CCN(c4ccc5c(c4)C(=O)N(C4CCC(=O)NC4=O)C5=O)C3)CC2)cc1", "note": "(stereo partly shown) [Compound 149]", "values": [{"measurement": "AUC", "setting": "[1]; Dog Beagle, 1 mg/kg IV", "result": 1200, "unit": "nM·h"}, {"measurement": "clearance", "setting": "[1]; Dog Beagle, 1 mg/kg IV", "result": 1.1, "unit": "L/h/kg"}, {"measurement": "Vd", "setting": "[1]; Dog Beagle, 1 mg/kg IV", "result": 7, "unit": "L/kg"}, {"measurement": "AUC", "setting": "[1]; Dog Beagle, 10 mg/kg PO", "result": 110, "unit": "nM·h"}, {"measurement": "bioavailability", "setting": "[1]; Dog Beagle, 10 mg/kg PO", "result": 0.9, "unit": "%"}, {"measurement": "AUC", "setting": "[1]; Monkey cynomolgus, 1 mg/kg IV", "result": 1000, "unit": "nM·h"}, {"measurement": "clearance", "setting": "[1]; Monkey cynomolgus, 1 mg/kg IV", "result": 1.33, "unit": "L/h/kg"}, {"measurement": "Vd", "setting": "[1]; Monkey cynomolgus, 1 mg/kg IV", "result": 7.5, "unit": "L/kg"}, {"measurement": "AUC", "setting": "[1]; Monkey cynomolgus, 10 mg/kg PO", "result": 90, "unit": "nM·h"}, {"measurement": "bioavailability", "setting": "[1]; Monkey cynomolgus, 10 mg/kg PO", "result": 0.8, "unit": "%"}, {"measurement": "AUC", "setting": "[1]; Monkey cynomolgus, 30 mg/kg PO", "result": 80, "unit": "nM·h"}, {"measurement": "AUC", "setting": "[1]; Mouse Balb/c, 1 mg/kg IV", "result": 4500, "unit": "nM·h"}, {"measurement": "clearance", "setting": "[1]; Mouse Balb/c, 1 mg/kg IV", "result": 0.312, "unit": "L/h/kg"}, {"measurement": "Vd", "setting": "[1]; Mouse Balb/c, 1 mg/kg IV", "result": 1, "unit": "L/kg"}, {"measurement": "AUC", "setting": "[1]; Mouse Balb/c, 10 mg/kg PO", "result": 16000, "unit": "nM·h"}, {"measurement": "bioavailability", "setting": "[1]; Mouse Balb/c, 10 mg/kg PO", "result": 35, "unit": "%"}, {"measurement": "AUC", "setting": "[1]; Mouse Balb/c, 30 mg/kg PO", "result": 27700, "unit": "nM·h"}, {"measurement": "bioavailability", "setting": "[1]; Mouse Balb/c, 30 mg/kg PO", "result": 1, "unit": "%"}, {"measurement": "AUC", "setting": "[1]; Mouse Balb/c, 90 mg/kg PO", "result": 37500, "unit": "nM·h"}, {"measurement": "bioavailability", "setting": "[1]; Mouse Balb/c, 90 mg/kg PO", "result": 1, "unit": "%"}, {"measurement": "AUC", "setting": "[1]; Mouse CD-1, 1 mg/kg IV", "result": 1800, "unit": "nM·h"}, {"measurement": "clearance", "setting": "[1]; Mouse CD-1, 1 mg/kg IV", "result": 0.756, "unit": "L/h/kg"}, {"measurement": "Vd", "setting": "[1]; Mouse CD-1, 1 mg/kg IV", "result": 1.5, "unit": "L/kg"}, {"measurement": "AUC", "setting": "[1]; Mouse CD-1, 10 mg/kg PO", "result": 11500, "unit": "nM·h"}, {"measurement": "bioavailability", "setting": "[1]; Mouse CD-1, 10 mg/kg PO", "result": 64, "unit": "%"}, {"measurement": "AUC", "setting": "[1]; Rat Sprague-Dawley, 1 mg/kg IV", "result": 1200, "unit": "nM·h"}, {"measurement": "clearance", "setting": "[1]; Rat Sprague-Dawley, 1 mg/kg IV", "result": 1.14, "unit": "L/h/kg"}, {"measurement": "Vd", "setting": "[1]; Rat Sprague-Dawley, 1 mg/kg IV", "result": 2.8, "unit": "L/kg"}, {"measurement": "AUC", "setting": "[1]; [6]", "result": 880, "unit": "nM·h"}, {"measurement": "bioavailability", "setting": "[1]; [6]", "result": 7, "unit": "%"}, {"measurement": "Aiolos degradation", "setting": "Aiolos [2]; after fourteen days of dosing", "result": "demonstrated Aiolos degradation"}, {"measurement": "% Aiolos Remaining in T cells", "setting": "Aiolos [2]; 10 mg/kg PO daily, 1 day of dosing", "result": 79, "unit": "%"}, {"measurement": "% Aiolos Remaining in T cells", "setting": "Aiolos [2]; 10 mg/kg PO daily, 14 days of dosing", "result": 76, "unit": "%"}, {"measurement": "% Aiolos Remaining in T cells", "setting": "Aiolos [2]; 30 mg/kg PO daily, 1 day of dosing", "result": 74, "unit": "%"}, {"measurement": "% Aiolos Remaining in T cells", "setting": "Aiolos [2]; 30 mg/kg PO daily, 14 days of dosing", "result": 55, "unit": "%"}, {"measurement": "% Aiolos Remaining in T cells", "setting": "Aiolos [2]; 100 mg/kg PO daily, 1 day of dosing", "result": 77, "unit": "%"}, {"measurement": "% Aiolos Remaining in T cells", "setting": "Aiolos [2]; 100 mg/kg PO daily, 14 days of dosing", "result": 43, "unit": "%"}, {"measurement": "effect on ITK levels in cells", "setting": "ITK", "result": "some effect"}, {"measurement": "IMiD activity (degradation of IMiD neo-substrates Ikaros and Aiolos)", "setting": "Aiolos [3]; Mantle Cell Lymphoma lines Mino and Rec-1", "result": "demonstrate IMiD activity"}, {"measurement": "DC50", "setting": "Aiolos [3]; Mino cells", "result": 0.087, "unit": "µM"}, {"measurement": "DC50", "setting": "Aiolos [3]; Rec-1 cells", "result": 0.081, "unit": "µM"}, {"measurement": "DC50", "setting": "BTK [4]", "result": 0.0059, "unit": "µM"}, {"measurement": "DC50", "setting": "BTK [5]", "result": 0.0023, "unit": "µM"}]}]}
